Assay results as given in ChEMBL document CHEMBL3045734, “Synthesis of Mannich Bases of 2, 6-Disubstituted 2H-pyran-3(6H)-ones and their Miticidal Activity” (1994).

Key:
Assay type in all cases: functional
[1] = tested on: Tetranychus urticae; test: Miticidal activity against Tetranychus urticae (two-spotted spider mite) in kidney beans assessed as mortality under greenhouse at 100 ppm at 25 +/- 2 degC measured after 48 hr of spray
[2] = tested on: Tetranychus urticae; test: Miticidal activity against Tetranychus urticae (two-spotted spider mite) in kidney beans assessed as mortality under greenhouse at 600 ppm at 25 +/- 2 degC measured after 48 hr of spray
[3] = tested on: Tetranychus urticae; test: Miticidal activity against Tetranychus urticae (two-spotted spider mite) in kidney beans assessed as mortality under greenhouse at 300 ppm at 25 +/- 2 degC measured after 48 hr of spray
[4] = tested on: Tetranychus urticae; test: Miticidal activity against Tetranychus urticae (two-spotted spider mite) in kidney beans assessed as mortality under greenhouse at 50 ppm at 25 +/- 2 degC measured after 48 hr of spray
[5] = tested on: Panonychus citri; test: Miticidal activity against Panonychus citri in satsuma mandarin assessed as mortality under greenhouse at 300 ppm at 25 +/- 2 degC measured after 48 hr of spray
[6] = tested on: Tetranychus urticae; test: Miticidal activity against Tetranychus urticae (two-spotted spider mite) in kidney beans assessed as next generation adult mites under greenhouse at 300 ppm at 25 +/- 2 degC measured after 14 days of spray relative to control
[7] = tested on: Panonychus citri; test: Miticidal activity against Panonychus citri in satsuma mandarin assessed as mortality under greenhouse at 50 ppm at 25 +/- 2 degC measured after 48 hr of spray
[8] = tested on: Panonychus citri; test: Miticidal activity against Panonychus citri in satsuma mandarin assessed as mortality under greenhouse at 100 ppm at 25 +/- 2 degC measured after 48 hr of spray
[9] = tested on: Tetranychus kanzawai; test: Miticidal activity against Tetranychus kanzawai in kidney beans assessed as next generation adult mites under greenhouse at 300 ppm at 25 +/- 2 degC measured after 14 days of spray relative to control
[10] = tested on: Panonychus citri; test: Miticidal activity against Panonychus citri in satsuma mandr assessed as next generation adult mites under greenhouse at 300 ppm at 25 +/- 2 degC measured after 14 days of spray relative to control
[11] = tested on: Tetranychus kanzawai; test: Miticidal activity against Tetranychus kanzawai in kidney beans assessed as mortality under greenhouse at 100 ppm at 25 +/- 2 degC measured after 48 hr of spray
[12] = tested on: Tetranychus kanzawai; test: Miticidal activity against Tetranychus kanzawai in kidney beans assessed as mortality under greenhouse at 50 ppm at 25 +/- 2 degC measured after 48 hr of spray
[13] = tested on: Tetranychus kanzawai; test: Miticidal activity against Tetranychus kanzawai in kidney beans assessed as mortality under greenhouse at 300 ppm at 25 +/- 2 degC measured after 48 hr of spray

Compound | mortality at 100 ppm [1] | mortality at 600 ppm [2] | mortality at 300 ppm [3] | other results
CCCCCCC1OC(OC)C=C(CN2CCC(C)CC2)C1=O (centres undefined) | 70% | 100% | 95% | 
COC1C=C(CN2CCC(C)CC2)C(=O)C(C2CCCCC2)O1 (centres undefined) | 60% | 100% | 85% | 
CCCCC1OC(OC)C=C(CN2CCCCC2)C1=O (centres undefined) | 10% | 90% | 87% | 
COC1C=C(CN2CCCC2)C(=O)C(C2CCCCC2)O1 (centres undefined) |  | 68% |  | 
CCCCCCC1OC(OC(C)C)C=C(CN2CCCCC2)C1=O (centres undefined) | 100% |  | 100% | mortality at 50 ppm [4]: 90%; mortality at 300 ppm [5]: 100%; Activity [6]: 93%; mortality at 50 ppm [7]: 88%; mortality at 100 ppm [8]: 100%; Activity [9]: 90%; Activity [10]: 91%; mortality at 100 ppm [11]: 100%; mortality at 50 ppm [12]: 93%; mortality at 300 ppm [13]: 100%
CCCCCCCCC1OC(OC)C=C(CN2CCCCC2)C1=O (centres undefined) | 50% | 100% | 90% | 
COC1C=C(CN2CCCCC2)C(=O)C(C2CCCCC2)O1 (centres undefined) | 68% | 100% | 100% | 
CCCCCCC1OC(OC)C=C(CN2CCCC(C)C2)C1=O (centres undefined) | 55% | 100% | 85% | 
CCCCCCC1OC(OC2CCCCC2)C=C(CN2CCCCC2)C1=O (centres undefined) | 82% |  | 100% | mortality at 50 ppm [4]: 40%
CCCCCCC1OC(OCCC)C=C(CN2CCCCC2)C1=O (centres undefined) | 100% |  | 100% | mortality at 50 ppm [4]: 70%
CCCCCCC1OC(OCC)C=C(CN2CCCCC2)C1=O (centres undefined) | 70% |  | 100% | mortality at 50 ppm [4]: 40%
CCCCCCC1OC(OCc2ccccc2)C=C(CN2CCCCC2)C1=O (centres undefined) | 40% |  | 55% | 
CCCCCCC1OC(OC)C=C(CN2CCCCC2C)C1=O (centres undefined) |  | 90% | 60% | 
COC1C=C(CN2CCCCC2)C(=O)CO1 (centres undefined) |  | 70% | 10% | 
CCCCCC1OC(OC)C=C(CN2CCCCC2)C1=O (centres undefined) | 20% | 100% | 95% | 
CCCCCCC1OC(Oc2ccccc2)C=C(CN2CCCCC2)C1=O (centres undefined) | 20% |  | 60% | 
CCCCCCOC1C=C(CN2CCCCC2)C(=O)C(CCCCCC)O1 (centres undefined) | 70% |  | 85% | mortality at 50 ppm [4]: 45%

Compound | mortality at 100 ppm [1] | mortality at 600 ppm [2] | mortality at 300 ppm [3] | other results
CCCCCCC1OC(OC(C)(C)C)C=C(CN2CCCCC2)C1=O (centres undefined) | 75% |  | 95% | mortality at 50 ppm [4]: 50%
CCCC1OC(OC)C=C(CN2CCCCC2)C1=O (centres undefined) |  | 90% | 20% | 
CCCCCCC1OC(OC)C=C(CN(CC)CC)C1=O (centres undefined) |  | 60% |  | 
CCCCCCC1OC(OC)C=C(CN2CCCC2)C1=O (centres undefined) |  | 70% |  | 
CCN(CC)CC1=CC(OC)OC(C2CCCCC2)C1=O (centres undefined) |  | 60% |  | 
COC1C=C(CN2CCCC(C)C2)C(=O)C(C2CCCCC2)O1 (centres undefined) | 65% | 100% | 83% | 
CCCCCCCCCCCCC1OC(OC)C=C(CN2CCCCC2)C1=O (centres undefined) |  | 90% | 65% | 
CCCCCCC1OC(OC)C=C(CN2CCOCC2)C1=O (centres undefined) |  | 90% | 65% | 
COC1C=C(CN2CCCCC2)C(=O)C(c2ccccc2)O1 (centres undefined) |  | 30% |  | 
CCCCCCC1OC(OC)C=C(CN(CCCC)CCCC)C1=O (centres undefined) |  | 75% |  | 
COC1C=C(CN2CCOCC2)C(=O)C(C2CCCCC2)O1 (centres undefined) |  | 90% | 65% | 
CCCCN(CCCC)CC1=CC(OC)OC(C2CCCCC2)C1=O (centres undefined) |  | 70% |  | 
COC1C=C(CN2CCCCC2C)C(=O)C(C2CCCCC2)O1 (centres undefined) |  | 80% | 55% | 
CCCCCCCCCCC1OC(OC)C=C(CN2CCCCC2)C1=O (centres undefined) | 20% | 95% | 70% | 
CCCCCCC1OC(OCC(C)C)C=C(CN2CCCCC2)C1=O (centres undefined) | 92% |  | 100% | mortality at 50 ppm [4]: 75%
CCCCCCC1OC(OC)C=C(CN2CCCCC2)C1=O (centres undefined) | 77% | 100% | 100% | mortality at 50 ppm [4]: 40%
CCCCCCC1OC(OCCCC)C=C(CN2CCCCC2)C1=O (centres undefined) | 75% |  | 100% | mortality at 50 ppm [4]: 40%
